The record followed here is US11806366B2, “Peptides and combination of peptides for use in immunotherapy against epithelial ovarian cancer and other cancers” (Immatics Biotechnologies GmbH, priority 2015, dated 2023).

In this test the test system is CD8 T cells from blood of healthy donors. The experiment in a line: Immunogenicity analysis of HLA class I ligands: aAPC priming of CD8 T cells, MHC-multimer staining. The test is classed as cell-based, human. To be noted: immunogenicity of MUC16/CA-125 ligands, HLA allotype as in Table 11. The method, then:
Priming of peptide specific cytotoxic lymphocytes (CTLs) was conducted using an established protocol involving artificial antigen presenting cells (aAPCs) (30). aAPCs consisted of streptavidin-coated polystyrene beads (5.6 μm in diameter; Bangs Laboratories, Fishers, Ind.). […] T cells were isolated from whole blood of healthy donors using a CD8 magnetic cell isolation kit (Miltenyi). One million T-cells per well were cultured in 96 well plates (Corning, Corning, N.Y., USA) and stimulated with the same number of loaded aAPCs in the presence of 5 ng/ml IL-12 (PromoCell, Heidelberg, Germany). T cells were stimulated 3 times in total with weekly stimulation interval. 40 U/ml IL-2 was added 2 days subsequent to each stimulation. T-cell priming was assessed by MHC-multimer staining one week after the last stimulation round.
For the applicability of peptide vaccines immunogenicity is a major imperative. In order to evaluate the immunogenic potential of the identified HLA ligands the inventors used a T-cell priming protocol involving artificial antigen presenting cells and T cells isolated from blood of healthy donors. […] This nearly 80% recognition rate verifies the presence of naïve MUC16 recognizing T cells in the human population. Similar results have been obtained for other TOP100 antigens (e.g. IDO1, LGALS1).
For the substance “53 (SPSKAFASL; listed as Homo sapiens) [compound 53]”, the positive/tested donors is recorded as 2/2.
Consider “548 (KMISAIPTL; listed as Homo sapiens) [compound 548]”, for which the positive/tested donors was 4/6.
The result for “72 (TPGNRAISL; listed as Homo sapiens) [compound 72]” reads 2/2; that for “62 (STSQEIHSATK; listed as Homo sapiens) [compound 62]”, 2/6; that for “34 (LPHSEITTL; listed as Homo sapiens) [compound 34]”, 0/2.
In the case of “7 (DALVLKTV; listed as Homo sapiens) [compound 7]”, the positive/tested donors is listed as 1/3.
Turning to “547 (IITEVITRL; listed as Homo sapiens) [compound 547]”, the positive/tested donors was 3/10.
“18 (FQRQGQTAL; listed as Homo sapiens) [compound 18]”: the positive/tested donors is 1/6.
The result for “13 (EVITSSRTTI; listed as Homo sapiens) [compound 13]” reads 1/1; that for “2 (STETSTVLY; listed as Homo sapiens) [compound 2]”, 0/2; that for “77 (VPRSAATTL; listed as Homo sapiens) [compound 77]”, 1/2.
The result for “48 (SPHPVTALL; listed as Homo sapiens) [compound 48]” reads 0/1.
The result for “50 (SPQNLRNTL; listed as Homo sapiens) [compound 50]” reads 1/1.
Take “5 (AVTNVRTSI; listed as Homo sapiens) [compound 5]”: the positive/tested donors is 1/3.
The result for “549 (TYSEKTTLF; listed as Homo sapiens) [compound 549]” reads 2/2.
The result for “11 (ETILTFHAF; listed as Homo sapiens) [compound 11]” reads 2/2; that for “56 (SQGFSHSQM; listed as Homo sapiens) [compound 56]”, 4/5; that for “23 (GTSGTPVSK; listed as Homo sapiens) [compound 23]”, 0/5.
The result for “8 (DPYKATSAV; listed as Homo sapiens) [compound 8]” reads 3/3.
As for “12 (EVISSRGTSM; listed as Homo sapiens) [compound 12]”, the positive/tested donors is on record as 1/3.
Turning to “63 (SVLADLVTTK; listed as Homo sapiens) [compound 63]”, the positive/tested donors is on record as 0/1.
“10 (ERSPVIQTL; listed as Homo sapiens) [compound 10]”: the positive/tested donors is recorded as 1/2.
The result for “14 (EVTSSGRTSI; listed as Homo sapiens) [compound 14]” reads 2/3.
